Tested on: Human immunodeficiency virus 1
Experiment: Antiviral activity against HIV1 Ba-L infected in HOS cells assessed as inhibition of viral infection
Type: functional, organism-based
Details: Human immunodeficiency virus 1, Ba-L

Row | Structure (SMILES) | IC50
1 | Cc1ccc(S(N)(=O)=O)c(C)c1C(=O)N[C@H]1CC[C@@](CCN2[C@@H]3CC[C@H]2C[C@@H](n2c(C)nc4ccccc42)C3)(c2ccccc2)CC1 | 2550 nM
2 | Cc1nc2ccccc2n1[C@H]1C[C@H]2CC[C@@H](C1)N2CC[C@]1(c2ccccc2)CC[C@@H](NC(=O)c2ccc(Cl)c(S(N)(=O)=O)c2)CC1 | 1630 nM
3 | Cc1ccc(S(N)(=O)=O)c(C)c1C(=O)N[C@H]1CC[C@](CCN2[C@@H]3CC[C@H]2C[C@@H](n2c(C)nc4ccccc42)C3)(c2ccccc2)CC1 | 1070 nM
4 | Cc1nc2ccccc2n1[C@H]1C[C@H]2CC[C@@H](C1)N2CC[C@]1(c2ccccc2)CC[C@H](NC(=O)c2ccc(F)c(S(N)(=O)=O)c2)CC1 | 480 nM
5 | CNS(=O)(=O)c1cc(Cl)c(C(=O)N[C@H]2CC[C@](CCN3[C@@H]4CC[C@H]3C[C@@H](n3c(C)nc5ccccc53)C4)(c3ccccc3)CC2)cc1F | 510 nM
6 | Cc1nc2ccccc2n1[C@H]1C[C@H]2CC[C@@H](C1)N2CC[C@]1(c2ccccc2)CC[C@H](NC(=O)c2cc(S(=O)(=O)NC(C)C)c(Cl)cc2F)CC1 | 590 nM
7 | CNS(=O)(=O)c1cc(C(=O)N[C@H]2CC[C@@H](CN3[C@@H]4CC[C@H]3C[C@@H](n3c(C)nc5ccccc53)C4)CC2)c(Cl)cc1F | > 20000 nM
8 | Cc1nc2ccccc2n1[C@H]1C[C@H]2CC[C@@H](C1)N2CC[C@]1(c2ccccc2)CC[C@H](NC(=O)c2cc(NS(C)(=O)=O)c(Cl)cc2F)CC1 | 1480 nM
9 | Cc1nc2ccccc2n1[C@H]1C[C@H]2CC[C@@H](C1)N2CCC[C@]1(c2ccccc2)CC[C@H](NC(=O)c2ccc(Cl)c(S(N)(=O)=O)c2)CC1 | 380 nM
10 | Cc1ccnc(C)c1C(=O)N[C@H]1CC[C@](CCCN2[C@@H]3CC[C@H]2C[C@@H](n2c(C)nc4ccccc42)C3)(c2ccccc2)CC1 | 2190 nM
11 | Cc1nc2ccccc2n1[C@H]1C[C@H]2CC[C@@H](C1)N2C[C@H]1CC[C@@H](NC(=O)c2ccc(Cl)c(S(N)(=O)=O)c2)CC1 | > 20000 nM
12 | Cc1nc2ccccc2n1[C@H]1C[C@H]2CC[C@@H](C1)N2[C@]1(C)CC[C@H](NC(=O)c2ccc(Cl)c(S(N)(=O)=O)c2)CC1 | 870 nM
13 | Cc1nc2ccccc2n1[C@H]1C[C@H]2CC[C@@H](C1)N2[C@]1(C)CC[C@H](NC(=O)c2c(Cl)ccc(S(N)(=O)=O)c2Cl)CC1 | 20000 nM
14 | Cc1nc2ccccc2n1[C@H]1C[C@H]2CC[C@@H](C1)N2CC[C@]1(c2ccccc2)CC[C@H](NC(=O)c2ccc(Cl)c(S(N)(=O)=O)c2)CC1 | 58 nM
15 | Cc1nc2ccccc2n1[C@H]1C[C@H]2CC[C@@H](C1)N2CC[C@]1(c2ccccc2)CC[C@H](NC(=O)c2ccc(S(N)(=O)=O)cc2Cl)CC1 | 230 nM
16 | Cc1nc2ccccc2n1[C@H]1C[C@H]2CC[C@@H](C1)N2CC[C@]1(c2ccccc2)CC[C@H](NC(=O)c2ccc(S(N)(=O)=O)cc2F)CC1 | 1800 nM
